Key:
PI3K beta = biological target: T1, PI3K beta (Homo sapiens, UniProt P42338); assay: Luciferase-based luminescence assay (ADP Glo), PI3K beta enzymatic activity; format: biochemical; conditions: for IC50: inhibition of enzymatic activity, ADP Glo, 25 μM ATP, read-out: IC50 p110β; for α/β ratio: ratio of enzymatic IC50 values, Table 1
T1 construct: purchased Millipore, Billerica, MA, USA
Method in brief: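 Final enzyme 4.8 nM PI3K beta or 7.6 nM PI3K gamma, with 50 μM PIP2 and 25 μM ATP, 1 h in HEPES pH 7.5 buffer with MgCl2, EGTA, NaCl, CHAPS and DTT. ADP formed measured by ADP-Glo luminescence; IC50 from 10-point curve fits.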

PI3Kγ = biological target: T2, PI3Kγ (Mus musculus, UniProt Q9JHG7); assay: ELISA assay for PI3Kγ: in-cell ELISA, phosphorylation of AKT (Ser473) in RAW 264.7 cells; format: cell-based; conditions: cellular, pAKT (Ser473), C5a stimulation, read-out: IC50 p110γ
T2 construct: endogenous in cells; host or cells: RAW 264.7 (ATCC #TIB-71)
T2 sequence (Q9JHG7 whole entry): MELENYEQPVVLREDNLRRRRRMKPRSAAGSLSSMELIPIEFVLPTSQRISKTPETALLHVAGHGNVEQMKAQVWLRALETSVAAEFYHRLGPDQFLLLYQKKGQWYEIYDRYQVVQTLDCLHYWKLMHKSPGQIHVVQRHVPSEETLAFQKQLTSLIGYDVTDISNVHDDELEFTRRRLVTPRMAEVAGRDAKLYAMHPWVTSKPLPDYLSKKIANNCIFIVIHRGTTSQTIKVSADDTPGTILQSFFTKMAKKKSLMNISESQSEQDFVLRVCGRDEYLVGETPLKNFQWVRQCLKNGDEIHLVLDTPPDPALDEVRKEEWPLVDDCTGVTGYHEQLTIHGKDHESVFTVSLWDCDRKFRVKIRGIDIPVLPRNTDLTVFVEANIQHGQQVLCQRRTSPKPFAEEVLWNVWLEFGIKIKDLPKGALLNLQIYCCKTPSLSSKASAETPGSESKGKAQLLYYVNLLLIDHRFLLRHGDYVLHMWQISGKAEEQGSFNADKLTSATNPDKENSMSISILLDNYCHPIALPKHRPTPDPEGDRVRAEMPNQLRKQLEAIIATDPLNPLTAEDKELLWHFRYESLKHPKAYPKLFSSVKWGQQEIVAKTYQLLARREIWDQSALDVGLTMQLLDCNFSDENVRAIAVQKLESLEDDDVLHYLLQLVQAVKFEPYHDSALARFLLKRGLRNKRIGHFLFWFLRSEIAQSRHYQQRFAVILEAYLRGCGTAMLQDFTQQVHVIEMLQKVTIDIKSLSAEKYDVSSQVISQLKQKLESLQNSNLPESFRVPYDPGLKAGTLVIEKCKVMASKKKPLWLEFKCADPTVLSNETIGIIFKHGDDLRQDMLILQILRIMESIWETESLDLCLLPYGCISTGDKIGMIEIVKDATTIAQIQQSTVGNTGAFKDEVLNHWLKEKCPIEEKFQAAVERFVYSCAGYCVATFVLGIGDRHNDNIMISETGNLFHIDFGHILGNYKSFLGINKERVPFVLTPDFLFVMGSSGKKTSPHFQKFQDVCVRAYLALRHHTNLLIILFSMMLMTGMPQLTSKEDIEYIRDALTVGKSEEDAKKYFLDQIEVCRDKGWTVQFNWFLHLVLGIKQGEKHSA
Procedure: PI3K gamma (PI3Kγ) activity was determined by measuring the phosphorylation of AKT (Ser473) using an in-cell ELISA assay. RAW 264.7 (mouse macrophage) cells were obtained from ATCC (ATCC #TIB-71). Growth medium was DMEM (CellGro #CV-10-013-CV) supplemented with 10% fetal bovine serum, 100 IU/mL penicillin, 100 μg/mL streptomycin, and 1×MEM non-essential amino acids. Phosphate buffered saline (PBS) contained 2.7 M NaCl, 54 mM KCl, 86 mM […] (dibasic, anhydrous), and 28 mM […] (monobasic, anhydrous) at pH 7.2. Stimulation mixture (10×) was 500 ng/mL recombinant human complement component C5a (R&D systems #2037-C5-025) diluted in serum-free DMEM medium (CellGro #CV-10-013-CV). Compounds for testing were dissolved and serially diluted in 100% DMSO (total of 10 concentrations), then diluted in serum-free DMEM to 2× final assay concentration. Fixative solution (2×) was 8% formaldehyde (Amresco #M134) diluted in PBS. Permeabilization solution was PBS supplemented with 0.10% Triton X-100. Blocking buffer was obtained from LiCor (LiCor #927-40000). Wash buffer was PBS supplemented with 0.1% Tween-20. Primary antibody solution was rabbit anti-pAKT^S473 monoclonal antibody (Cell Signaling #4060) and mouse anti-total S6 (Santa Cruz #74459) diluted 1:500 and 1:2000, respectively, in the blocking buffer. Secondary antibody solution was IRDye 800CW-conjugated goat anti-rabbit IgG (LiCor #926-32211) and IRDye 680LT-conjugated goat anti-mouse IgG (LiCor #926-68020) diluted 1:1000 and 1:2000, respectively, in the blocking buffer.
RAW 264.7 cells were subcultured in growth medium and seeded into flat, clear bottom, 96-well plates (Corning #3904) at 70000 cells/well, then incubated overnight in a 37° C., 5% CO2 incubator. Growth medium in plates was replaced with 100 μL/well serum-free DMEM and incubated overnight in a 37° C., 5% CO2 incubator. Fresh serum-free DMEM (50 μL/well) was added to plates. Compound treatment was performed by adding 50 μL/well of 2× compound mixture to plates and incubating for 2 hrs at 37° C., 5% CO2, after which 11 μL/well of 10× stimulation mixture was added and plates were incubated for 3 min at 37° C., 5% CO2. Fixation was performed by adding 110 μL/well of 2× fixative solution to plates and incubating for 20 min at room temperature. Permeabilization was performed by replacing fixation solution with 150 μL/well permeabilization solution and incubating for 10 min at room temperature. Permeabilization was repeated (for a total of 2 times). Permeabilization solution was replaced with 100 μL/well blocking buffer and plates were incubated for 1 hr at room temperature, after which 100 μL/well of primary antibody solution was added and plates were incubated overnight at 4° C. Plates were washed with wash buffer, after which 100 μL/well of secondary antibody solution was added to the plates and incubated in the dark for 1 hr at room temperature. Plates were washed with wash buffer, followed by awash with PBS. After completely removing PBS, plates were scanned on the Licor Odyssey Imager. Images were quantified using Licor Odyssey application software. IC50 values were determined by curve fitting using a Collaborative Drug Discovery database (www.collaborativedrug.com).

T1 sequence (P42338 whole entry, species assumed): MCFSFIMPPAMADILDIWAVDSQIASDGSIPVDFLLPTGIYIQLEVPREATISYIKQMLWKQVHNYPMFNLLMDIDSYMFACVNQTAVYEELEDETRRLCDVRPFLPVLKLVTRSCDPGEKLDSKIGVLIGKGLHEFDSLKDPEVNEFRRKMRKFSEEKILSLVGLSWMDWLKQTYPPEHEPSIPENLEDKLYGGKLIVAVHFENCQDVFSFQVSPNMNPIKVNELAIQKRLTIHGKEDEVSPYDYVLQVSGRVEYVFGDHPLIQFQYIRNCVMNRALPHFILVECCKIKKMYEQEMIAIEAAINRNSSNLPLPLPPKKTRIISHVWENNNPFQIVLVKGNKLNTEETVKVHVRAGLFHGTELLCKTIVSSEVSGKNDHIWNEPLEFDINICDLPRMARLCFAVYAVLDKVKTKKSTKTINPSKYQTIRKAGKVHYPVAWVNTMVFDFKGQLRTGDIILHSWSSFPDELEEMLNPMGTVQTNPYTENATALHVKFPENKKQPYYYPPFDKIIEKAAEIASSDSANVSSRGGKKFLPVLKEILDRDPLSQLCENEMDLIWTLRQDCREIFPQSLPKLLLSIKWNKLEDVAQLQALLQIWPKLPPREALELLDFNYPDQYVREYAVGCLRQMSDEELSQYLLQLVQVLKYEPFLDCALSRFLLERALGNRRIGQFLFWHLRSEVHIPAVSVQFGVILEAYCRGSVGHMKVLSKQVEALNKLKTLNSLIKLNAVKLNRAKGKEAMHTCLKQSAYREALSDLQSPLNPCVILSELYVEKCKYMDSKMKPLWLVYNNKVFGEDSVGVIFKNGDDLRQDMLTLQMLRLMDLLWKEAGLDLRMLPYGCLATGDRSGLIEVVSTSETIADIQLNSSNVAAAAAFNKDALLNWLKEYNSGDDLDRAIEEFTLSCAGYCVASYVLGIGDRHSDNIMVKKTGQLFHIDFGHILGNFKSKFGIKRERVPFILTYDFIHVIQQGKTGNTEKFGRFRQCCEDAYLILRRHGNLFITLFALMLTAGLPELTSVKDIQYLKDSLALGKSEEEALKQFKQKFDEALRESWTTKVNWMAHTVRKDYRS
T1 sequence (P27986 whole entry partner, species assumed): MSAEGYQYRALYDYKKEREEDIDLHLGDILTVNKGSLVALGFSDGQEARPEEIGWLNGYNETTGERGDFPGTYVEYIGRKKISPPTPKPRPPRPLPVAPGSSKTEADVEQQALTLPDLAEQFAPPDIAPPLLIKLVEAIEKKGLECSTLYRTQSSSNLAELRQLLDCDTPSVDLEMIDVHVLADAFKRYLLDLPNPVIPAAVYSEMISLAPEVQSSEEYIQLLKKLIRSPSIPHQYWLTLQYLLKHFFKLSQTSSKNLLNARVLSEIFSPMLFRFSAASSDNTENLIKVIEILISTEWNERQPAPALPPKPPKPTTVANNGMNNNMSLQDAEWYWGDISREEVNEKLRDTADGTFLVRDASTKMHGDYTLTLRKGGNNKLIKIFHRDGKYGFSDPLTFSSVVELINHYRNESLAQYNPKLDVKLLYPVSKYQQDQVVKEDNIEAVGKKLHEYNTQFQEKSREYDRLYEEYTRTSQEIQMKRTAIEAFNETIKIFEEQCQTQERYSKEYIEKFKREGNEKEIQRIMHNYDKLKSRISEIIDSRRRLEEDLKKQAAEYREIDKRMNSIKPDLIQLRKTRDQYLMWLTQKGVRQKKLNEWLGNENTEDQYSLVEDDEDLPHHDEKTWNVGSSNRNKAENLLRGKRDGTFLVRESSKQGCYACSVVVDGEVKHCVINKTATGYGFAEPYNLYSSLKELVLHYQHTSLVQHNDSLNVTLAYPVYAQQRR

Structure (SMILES) | IC50 (PI3K beta) [nM] | α/β ratio (PI3K beta) | IC50 (PI3Kγ) [nM]
COc1cc(-c2ccccc2CC(C)(C)Nc2nc(N3CCOCC3)nc(-n3c(C(F)F)nc4ccccc43)n2)ccn1 [Compound A41, 4-(2-(difluoromethyl)-1H-benzo[d]imidazol-1-yl)-N-(1-(2-(2-methoxypyridin-4-yl)phenyl)-2-methylpropan-2-yl)-6-morpholino-1,3,5-triazin-2-amine] | > 500 | D’ | > 500
CC(C)(Cc1ccccc1-c1ccccc1F)Nc1nc(N2CCOCC2)nc(-n2c(C(F)F)nc3ccccc32)n1 [Compound A59, 4-(2-(difluoromethyl)-1H-benzo[d]imidazol-1-yl)-N-(1-(2′-fluorobiphenyl-2-yl)-2-methylpropan-2-yl)-6-morpholino-1,3,5-triazin-2-amine] | 200 to 500 | C’ | > 500
CC(=O)N1CCC(c2ccccc2CC(C)(C)Nc2nc(N3CCOCC3)nc(-n3c(C(F)F)nc4ccccc43)n2)CC1 [Compound A72, 4-(2-(difluoromethyl)-1H-benzo[d]imidazol-1-yl)-N-(2-methyl-1-(2-(1-acetylpiperidin-4-yl)phenyl)propan-2-yl)-6-morpholino-1,3,5-triazin-2-amine] | ≤ 100 | A’ | ≤ 100
COc1ccc(-c2ccccc2CC(C)(C)Nc2nc(N3CCOCC3)nc(-n3c(C(F)F)nc4ccccc43)n2)cc1 [Compound A67, 4-(2-(difluoromethyl)-1H-benzo[d]imidazol-1-yl)-N-(1-(4′-methoxybiphenyl-2-yl)-2-methylpropan-2-yl)-6-morpholino-1,3,5-triazin-2-amine] | 200 to 500 | D’ | > 500
